Experimental findings from PubChem BioAssay (NCI) are described below.

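In this assay, cells in 96-well plates receive the compound at five concentrations for 48 hours. Endpoints are linearly interpolated between the surrounding concentrations. GI50 marks 50% less growth. TGI marks complete inhibition of growth.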

Some test systems named below: TK-10 renal; RPMI-8226 leukemia; SK-MEL-5 melanoma; OVCAR-3 ovarian; NCI/ADR-RES ovarian; SF-268 CNS; IGROV1 ovarian; MALME-3M melanoma; CAKI-1 renal; SNB-75 CNS.
Holding throughout (test): NCI anticancer screen, dose series, 48 h

With `CCOC(=O)c1cc2cc3c4c(c2oc1=O)CCCN4CCC3`, the TGI with TK-10 renal is greater than 100 µM; with RPMI-8226 leukemia it was 49.3 µM; with SK-MEL-5 melanoma, 26.8 µM; in the assay on OVCAR-3 ovarian it was 93.9 µM; in the assay with NCI/ADR-RES ovarian, 72.9 µM; in the assay on SF-268 CNS it was 71.3 µM. Also, the TGI in the assay on IGROV1 ovarian, in the assay on MALME-3M melanoma and in the assay with CAKI-1 renal was greater than 100 µM each time.
Regarding `COc1cc(C2SCCCCCCCCCCSC(c3ccc(O)c(OC)c3)SCCCCCCCCCCS2)ccc1O` (configuration not stated), the TGI in the assay with TK-10 renal, in the assay on RPMI-8226 leukemia, in the assay with SK-MEL-5 melanoma, in the assay on NCI/ADR-RES ovarian, in the assay with SF-268 CNS and in the assay with IGROV1 ovarian was greater than 100 µM each time. The TGI in the assay on MALME-3M melanoma, in the assay with CAKI-1 renal and in the assay with SNB-75 CNS was greater than 100 µM each time.
As for `CCCCCCCCOC(=O)CC[C@@H](C)[C@H]1CC[C@H]2[C@@H]3[C@H](OC(=O)CCN)C[C@@H]4C[C@H](OC(=O)CCN)CC[C@]4(C)[C@H]3C[C@H](OC(=O)CCN)[C@]12C`, the GI50 in the assay on RPMI-8226 leukemia was 8.42 µM; in the assay on SK-MEL-5 melanoma, 19.4 µM; with OVCAR-3 ovarian, 14.6 µM; with NCI/ADR-RES ovarian, 17.2 µM; in the assay on SF-268 CNS, 3.34 µM; with IGROV1 ovarian it was 3.24 µM. The GI50 in the assay with MALME-3M melanoma is 2.58 µM; in the assay on CAKI-1 renal, 18 µM; in the assay on SNB-75 CNS, 3.32 µM. Besides, the TGI with RPMI-8226 leukemia stood at 33.6 µM; with SK-MEL-5 melanoma it was 51.7 µM; with OVCAR-3 ovarian, 35.4 µM; with NCI/ADR-RES ovarian it was 37.8 µM; with SF-268 CNS, 9.12 µM; with IGROV1 ovarian it was 9.1 µM. The TGI came to 5.86 µM in the assay on MALME-3M melanoma, 34.6 µM in the assay with CAKI-1 renal and 13.6 µM with SNB-75 CNS.
With `Nc1nonc1-c1nc2cnccc2n1C1CC1`, the GI50 is 0.636 µM with TK-10 renal; 6.46 µM with RPMI-8226 leukemia; 5.81 µM with SK-MEL-5 melanoma; 7.55 µM in the assay with OVCAR-3 ovarian; 10.6 µM with NCI/ADR-RES ovarian; 4.98 µM with SF-268 CNS. Also, the GI50 in the assay on IGROV1 ovarian is 8.76 µM; in the assay on MALME-3M melanoma it was greater than 15.9 µM; with CAKI-1 renal it was 1.45 µM; with SNB-75 CNS, 3.02 µM. Moreover, the TGI in the assay with TK-10 renal is greater than 20.3 µM; in the assay with RPMI-8226 leukemia, 24.4 µM; with SK-MEL-5 melanoma, greater than 19 µM; in the assay with OVCAR-3 ovarian, greater than 25 µM; with NCI/ADR-RES ovarian, greater than 25 µM; in the assay with SF-268 CNS, greater than 25 µM. Further, the TGI was greater than 25 µM with IGROV1 ovarian, greater than 25 µM in the assay on MALME-3M melanoma, greater than 25 µM in the assay with CAKI-1 renal and greater than 18.5 µM in the assay on SNB-75 CNS.
Regarding `O=c1c2cc(F)ccc2sc2c(N3CCNCC3)nc3ccc(F)cc3c12`, the GI50 was 1.94 µM with TK-10 renal; 2.16 µM in the assay with RPMI-8226 leukemia; 1.73 µM in the assay with SK-MEL-5 melanoma; 1.73 µM in the assay on OVCAR-3 ovarian; 1.75 µM in the assay with NCI/ADR-RES ovarian; 1.57 µM in the assay on SF-268 CNS. The GI50 with IGROV1 ovarian is 1.34 µM; with MALME-3M melanoma, 1.59 µM; in the assay with CAKI-1 renal, 1.57 µM; in the assay with SNB-75 CNS it was 1.42 µM. The TGI with TK-10 renal was found to be 3.47 µM; in the assay on RPMI-8226 leukemia it was 4.89 µM; with SK-MEL-5 melanoma, 3.11 µM; with OVCAR-3 ovarian it was 3.17 µM; with NCI/ADR-RES ovarian, 3.44 µM; in the assay with SF-268 CNS, 3.16 µM. Besides, the TGI in the assay with IGROV1 ovarian stood at 2.74 µM; with MALME-3M melanoma, 3.06 µM; in the assay on CAKI-1 renal it was 2.92 µM; in the assay with SNB-75 CNS, 2.82 µM.
As to `COc1cccc(/C(C#N)=C/c2nc3c(N4CCOCC4)nc(Cl)nc3n2C)c1`, the GI50 in the assay on RPMI-8226 leukemia was 0.376 µM; in the assay on SK-MEL-5 melanoma it was 1.73 µM; with OVCAR-3 ovarian, 0.611 µM; with NCI/ADR-RES ovarian, 2.31 µM; in the assay on SF-268 CNS, 1.57 µM; in the assay on IGROV1 ovarian it was 1.2 µM. The GI50 in the assay with MALME-3M melanoma is 1.57 µM; in the assay on CAKI-1 renal it was 0.621 µM; with SNB-75 CNS it was 0.305 µM. In addition, the TGI stood at 1.87 µM in the assay with RPMI-8226 leukemia; 3.14 µM in the assay with SK-MEL-5 melanoma; 1.92 µM in the assay on OVCAR-3 ovarian; 9.31 µM in the assay with NCI/ADR-RES ovarian; 3.17 µM in the assay on SF-268 CNS; 2.49 µM in the assay on IGROV1 ovarian. For the same compound, the TGI stood at 2.97 µM in the assay on MALME-3M melanoma, 1.99 µM in the assay with CAKI-1 renal and 1.79 µM in the assay on SNB-75 CNS.
Turning to `NS(=O)(=O)c1ccc(-n2nc3c(c2-c2ccc(Cl)cc2)Cc2ccccc2-3)cc1`, the GI50 with TK-10 renal is 19.5 µM; in the assay on RPMI-8226 leukemia it was 10.4 µM; in the assay on SK-MEL-5 melanoma, 1.36 µM; with OVCAR-3 ovarian it was 17 µM; in the assay with NCI/ADR-RES ovarian, 19.6 µM; in the assay on SF-268 CNS, 22.4 µM. Moreover, the GI50 is 2.58 µM in the assay on IGROV1 ovarian, 2.96 µM with MALME-3M melanoma, 17.5 µM in the assay on CAKI-1 renal and 14.6 µM in the assay with SNB-75 CNS. In addition, the TGI turned out to be 35.6 µM in the assay with TK-10 renal; 24.7 µM in the assay on RPMI-8226 leukemia; 3.33 µM with SK-MEL-5 melanoma; 31.6 µM in the assay with OVCAR-3 ovarian; 44.8 µM with NCI/ADR-RES ovarian; 50.4 µM with SF-268 CNS. Besides, the TGI in the assay with IGROV1 ovarian was found to be 14.2 µM; in the assay with MALME-3M melanoma, 14.7 µM; with CAKI-1 renal, 31.6 µM; with SNB-75 CNS, 30.5 µM.
Consider `C=CCNc1nc2c(s1)C(=O)c1ccccc1C2=O`, for which the TGI in the assay with TK-10 renal amounted to 34.2 µM; in the assay on RPMI-8226 leukemia, 17.4 µM; with SK-MEL-5 melanoma it was 3.1 µM; in the assay on OVCAR-3 ovarian, 37.6 µM; in the assay on NCI/ADR-RES ovarian it was 82.8 µM; in the assay on SF-268 CNS, 26 µM. In addition, the TGI in the assay with IGROV1 ovarian worked out at 38.3 µM; in the assay with MALME-3M melanoma, 25.6 µM; with CAKI-1 renal, 26.8 µM; in the assay with SNB-75 CNS, 38.8 µM.
Consider `Cc1[nH]nc(C(F)(F)F)c1N=NN(C)C`, for which the TGI in the assay with TK-10 renal is 22.9 µM; with RPMI-8226 leukemia it was 5.15 µM; in the assay with SK-MEL-5 melanoma it was greater than 100 µM; in the assay with OVCAR-3 ovarian, 22.1 µM; in the assay with NCI/ADR-RES ovarian, 23 µM; in the assay with SF-268 CNS, 24.1 µM. For the same compound, the TGI worked out at 38.3 µM in the assay on MALME-3M melanoma and 3.56 µM in the assay on CAKI-1 renal.
